Like-named read-outs stand apart in the source and are kept apart here.
Test system: carbapenem resistant Enterobacteriaceae (CRE)
Assay: MIC of cefiderocol with Compound 1 vs approved BL/BLI combinations, 120 CRE isolates
Description: A panel of 30 strains of characterized Enterobacteriaceae isolates produce Ambler class A, B, C, and D β-lactamase were used. […] IDM was prepared by adding 100 g of chelex (a chelating agent) to 1 L of sterile CAMBH and stirring for 2 hours. The chelex treated media was then filtered using a 0.2 μm filter and divalent Ca, Mg, and Zn are added back at relevant concentrations. The pH was adjusted to 7.2 using HCl and the media was filtered again to ensure sterility. This created a medium that was devoid of iron but retains appropriate concentration of other cations and was necessary for evaluating the activity of cefiderocol originating from its uptake by bacterial iron transporters. Bacteria strains were grown for 3-5 hours in CAMHB and IDM. Cefiderocol was added either to a microtiter plate in 2-fold serial dilutions in CAMHB and in parallel in IDM. […] Once the test articles were added the plates were inoculated according to CLSI broth microdilution method.
The challenge set of organisms consisted of a variety of Enterobacteriaceae species expressing IMP (n=30), NDM (30), VIM (15), KPC (n=30), and AmpC (n=15).

For `CC(C)(O/N=C(\C(=O)N[C@@H]1C(=O)N2C(C(=O)[O-])=C(C[N+]3(CCNC(=O)c4ccc(O)c(O)c4Cl)CCCC3)CS[C@H]12)c1csc(N)n1)C(=O)O` [FDC, cefiderocol], the MIC was 0.059 mg/L, the MIC50 was 1 mg/L and the MIC90 was 8 mg/L. For the same compound, the MIC (Enterobacter cloacae, Enterobacter cloacae 1207515 (NDM-6), IDM) was 64 mg/L, the MIC (Enterobacter cloacae, Enterobacter cloacae 1212159 (NDM-6), IDM) was 16 mg/L and the MIC (Enterobacter cloacae, Enterobacter cloacae 1212160 (NDM-6), IDM) was 16 mg/L. The MIC (Enterobacter cloacae, Enterobacter cloacae 1256568 (VIM-23), IDM) was 0.125 mg/L, the MIC (Enterobacter cloacae, Enterobacter cloacae 1284042 (VIM-5), IDM) was 8 mg/L and the MIC (Enterobacter cloacae, Enterobacter cloacae 1284044 (VIM-5), IDM) was 4 mg/L. The MIC (Enterobacter cloacae, Enterobacter cloacae 1284065 (VIM-5), IDM) was 4 mg/L, the MIC (Enterobacter cloacae, Enterobacter cloacae 1284066 (VIM-5), IDM) was 32 mg/L and the MIC (Enterobacter cloacae, Enterobacter cloacae 1455568 (NDM-4), IDM) was 16 mg/L. For the same compound, the MIC (Enterobacter cloacae, Enterobacter cloacae 1488830 (IMP-14), IDM) was 2 mg/L, the MIC (Enterobacter cloacae, Enterobacter cloacae 1490669 (IMP-4), IDM) was 0.25 mg/L and the MIC (Enterobacter cloacae, Enterobacter cloacae 1590932 (VIM-4), IDM) was 2 mg/L. The MIC (Enterobacter cloacae, Enterobacter cloacae 1703478 (IMP-4), IDM) was 0.125 mg/L, the MIC (Enterobacter cloacae, Enterobacter cloacae IHMA 908146 (ACT-1, CTX-M-22, IMP), IDM) was 0.125 mg/L and the MIC (Escherichia coli, Escherichia coli 128 (AmpC, SHV-12, TOHO-2, TEM-1), IDM) was 0.5 mg/L. It also gave an MIC (Escherichia coli, Escherichia coli 233 (AmpC, SHV-2, KPC-3, CTX-M-15 and TEM-1), IDM) of 1 mg/L, an MIC (Escherichia coli, Escherichia coli 469 (AmpC, SHV-12, TEM-1), IDM) of 0.5 mg/L and an MIC (Escherichia coli, Escherichia coli 3073 (AmpC, CTX-M-3), IDM) of 1 mg/L. It also gave an MIC (Escherichia coli, Escherichia coli 3102 (AmpC, CTX-M-15, TEM-1), IDM) of 0.059 mg/L, an MIC (Escherichia coli, Escherichia coli 54321 (AmpC, CTX-M-15, TEM-1), IDM) of 2 mg/L and an MIC (Escherichia coli, Escherichia coli 64167 (AmpC, TEM-1, GES-5), IDM) of 0.25 mg/L. For the same compound, the MIC (Escherichia coli, Escherichia coli 786978 (KPC-2), IDM) was 0.5 mg/L, the MIC (Escherichia coli, Escherichia coli 1266865 (NDM-5), IDM) was 8 mg/L and the MIC (Escherichia coli, Escherichia coli 1275629 (VIM-23), IDM) was 0.5 mg/L. The MIC (Escherichia coli, Escherichia coli 1275635 (VIM-23), IDM) was 0.5 mg/L, the MIC (Escherichia coli, Escherichia coli 1371539 (NDM-6), IDM) was 2 mg/L and the MIC (Escherichia coli, Escherichia coli 1424126 (NDM-5), IDM) was 128 mg/L. For the same compound, the MIC (Escherichia coli, Escherichia coli 1438691 (NDM-5), IDM) was 16 mg/L, the MIC (Escherichia coli, Escherichia coli 1438767 (NDM-5), IDM) was 128 mg/L and the MIC (Escherichia coli, Escherichia coli 1468388 (IMP-59), IDM) was 2 mg/L. It also gave an MIC (Escherichia coli, Escherichia coli CH1 (AmpC, TEM-1, CTX-M-15, SHV-5, SHV-1), IDM) of 0.25 mg/L, an MIC (Escherichia coli, Escherichia coli EC15521A (AmpC, CMY-2, TEM-1), IDM) of 4 mg/L and an MIC (Escherichia coli, Escherichia coli EC15522A (AmpC, CMY-2, TEM-1, CTX-M-15), IDM) of 0.059 mg/L. The MIC (Escherichia coli, Escherichia coli J53 (SHV-5, AmpC, TEM-1), IDM) was 0.03 mg/L, the MIC (Escherichia coli, Escherichia coli SI-LP505 (AmpC, CTX-M-14, TEM-1), IDM) was 0.5 mg/L and the MIC (Escherichia coli, Escherichia coli SI-LP574 (AmpC, CTX-M-14, TEM-1), IDM) was 0.059 mg/L. The MIC (Escherichia coli, Escherichia coli SI-P026 (AmpC, CMY-2, TEM-1), IDM) was 0.059 mg/L, the MIC (Escherichia coli, Escherichia coli SI-Vr059 (AmpC, CTX-M-32 and TEM-1), IDM) was 2 mg/L and the MIC (Klebsiella aerogenes, Enterobacter aerogenes 847438 (CTX-M-2, KPC), IDM) was 0.059 mg/L. For the same compound, the MIC (Klebsiella aerogenes, Enterobacter aerogenes CDC-0161 (IMP-4, TEM-1B, OXA-1, SFO-1), IDM) was 2 mg/L, the MIC (Klebsiella aerogenes, Enterobacter aerogenes IHMA 846505 (CMY-2, IMP), IDM) was 0.5 mg/L and the MIC (Klebsiella aerogenes, Enterobacter aerogenes IHMA 890184 (IMP), IDM) was 0.059 mg/L. It also gave an MIC (Klebsiella oxytoca, Klebsiella oxytoca 847537 (KPC-2), IDM) of 1 mg/L, an MIC (Klebsiella oxytoca, Klebsiella oxytoca 847539 (CTX-M-2, KPC), IDM) of 1 mg/L and an MIC (Klebsiella oxytoca, Klebsiella oxytoca 1274060 (IMP-4), IDM) of 0.059 mg/L. The MIC (Klebsiella oxytoca, Klebsiella oxytoca 1417076 (IMP-8), IDM) was 4 mg/L, the MIC (Klebsiella oxytoca, Klebsiella oxytoca 1417077 (IMP-8), IDM) was 4 mg/L and the MIC (Klebsiella oxytoca, Klebsiella oxytoca 1585615 (IMP-4), IDM) was 0.25 mg/L. The MIC (Klebsiella oxytoca, Klebsiella oxytoca 1622674 (VIM-44), IDM) was 1 mg/L, the MIC (Klebsiella oxytoca, Klebsiella oxytoca IHMA 871515 (IMP, KPC-2, SHV-12), IDM) was 1 mg/L and the MIC (Klebsiella oxytoca, Klebsiella oxytoca IHMA 871516 (IMP, KPC-2, SHV-12), IDM) was 0.059 mg/L. For the same compound, the MIC (Klebsiella oxytoca, Klebsiella oxytoca IHMA 871518 (IMP, KPC-2, SHV-12), IDM) was 1 mg/L, the MIC (Klebsiella pneumoniae, Klebsiella pneumoniae 845661 (KPC-3), IDM) was 1 mg/L and the MIC (Klebsiella pneumoniae, Klebsiella pneumoniae 845662 (KPC-3), IDM) was 4 mg/L. It also gave an MIC (Klebsiella pneumoniae, Klebsiella pneumoniae 845665 (KPC-3), IDM) of 1 mg/L, an MIC (Klebsiella pneumoniae, Klebsiella pneumoniae 845667 (KPC-3), IDM) of 1 mg/L and an MIC (Klebsiella pneumoniae, Klebsiella pneumoniae 845670 (KPC-3), IDM) of 0.25 mg/L. For the same compound, the MIC (Klebsiella pneumoniae, Klebsiella pneumoniae 845904 (KPC-3), IDM) was 2 mg/L, the MIC (Klebsiella pneumoniae, Klebsiella pneumoniae 847204 (KPC-2), IDM) was 0.5 mg/L and the MIC (Klebsiella pneumoniae, Klebsiella pneumoniae 847375 (SHV-12, KPC-2), IDM) was 1 mg/L. It also gave an MIC (Klebsiella pneumoniae, Klebsiella pneumoniae 847378 (SHV-12, KPC-2), IDM) of 4 mg/L, an MIC (Klebsiella pneumoniae, Klebsiella pneumoniae 847379 (CTX-M-2, KPC-2), IDM) of 0.125 mg/L and an MIC (Klebsiella pneumoniae, Klebsiella pneumoniae 847383 (KPC-2), IDM) of 2 mg/L. For the same compound, the MIC (Klebsiella pneumoniae, Klebsiella pneumoniae 847384 (SHV-12, KPC-2), IDM) was 1 mg/L, the MIC (Klebsiella pneumoniae, Klebsiella pneumoniae 847387 (SHV-12, KPC-2), IDM) was 2 mg/L and the MIC (Klebsiella pneumoniae, Klebsiella pneumoniae 847747 (CTX-M-2, KPC), IDM) was 0.5 mg/L. The MIC (Klebsiella pneumoniae, Klebsiella pneumoniae 848561 (SHV-11, CTX-M-3, KPC), IDM) was 2 mg/L, the MIC (Klebsiella pneumoniae, Klebsiella pneumoniae 848562 (SHV-11, KPC-3), IDM) was 1 mg/L and the MIC (Klebsiella pneumoniae, Klebsiella pneumoniae 848563 (KPC-3), IDM) was 0.5 mg/L. The MIC (Klebsiella pneumoniae, Klebsiella pneumoniae 848566 (SHV-11, KPC-3), IDM) was 1 mg/L, the MIC (Klebsiella pneumoniae, Klebsiella pneumoniae 848600 (KPC-3), IDM) was 1 mg/L and the MIC (Klebsiella pneumoniae, Klebsiella pneumoniae 848788 (KPC-2), IDM) was 0.5 mg/L. For the same compound, the MIC (Klebsiella pneumoniae, Klebsiella pneumoniae 848790 (KPC-2), IDM) was 2 mg/L, the MIC (Klebsiella pneumoniae, Klebsiella pneumoniae 848791 (SHV-12, KPC-2), IDM) was 4 mg/L and the MIC (Klebsiella pneumoniae, Klebsiella pneumoniae 848828 (SHV-12, KPC-2), IDM) was 4 mg/L. It also gave an MIC (Klebsiella pneumoniae, Klebsiella pneumoniae 848832 (KPC-2), IDM) of 0.5 mg/L, an MIC (Klebsiella pneumoniae, Klebsiella pneumoniae 848842 (SHV-2A, KPC-2), IDM) of 1 mg/L and an MIC (Klebsiella pneumoniae, Klebsiella pneumoniae 848844 (SHV-11, KPC-2), IDM) of 4 mg/L. For the same compound, the MIC (Klebsiella pneumoniae, Klebsiella pneumoniae 890066 (SHV-33; TEM-33; CTX-M-15; IMP-1), IDM) was 0.5 mg/L, the MIC (Klebsiella pneumoniae, Klebsiella pneumoniae 1212142 (NDM-6), IDM) was 4 mg/L and the MIC (Klebsiella pneumoniae, Klebsiella pneumoniae 1212258 (NDM-6), IDM) was 4 mg/L.

— patent US20220054513A1, “COMBINATION COMPOSITIONS COMPRISING A BETA-LACTAMASE INHIBITOR” (VenatoRx Pharmaceuticals, Inc., priority 2018, published 2022)
